The subject of this assay is Sr line resistant mutant rice culture cells. As to the kind of experiment: Growth of rice culture cells (relative wet weight of callus) in the presence of herbicide, Sr line. It counts as cell-based, Oryza sativa var. Kinmaze. On the procedure:
Next, endosperm portions were removed from the callus induced on the medium, and then subculture was performed. Then, part of the obtained calli was sub-cultured, that is, cultured successively once per two weeks in a liquid medium (the composition is the same as in that shown in Table 3, but not supplemented with Gelrite) supplemented with 1 μM bispyribac-sodium (one type of PC herbicides). Two to 6 weeks later the culture cells started to wither. About 2 months later, a plurality of non-discolored cell masses that were thought to be conducting cell division were obtained from among culture cell populations most of which had died and became discolored brown. These cell masses were isolated and cultured, so that a plurality of cell lines that can proliferate in the presence of 2 μM bispyribac-sodium were obtained. […]
Approximately 1.5 g (wet weight) of the resistant mutant was transplanted into a 200 ml Erlenmeyer flask supplemented with 50 ml of a MS-2,4-D liquid medium and bispyribac-sodium at a certain concentration, followed by culturing at approximately 27° C. for a certain period. The wet weight of the callus was measured periodically. The relative amount of increase was determined based on the wet weight of the transplanted resistant mutant. In addition, the experiment was performed three times with different bispyribac-sodium concentrations, and the standard error was calculated. […]

Consider two molecules from US8030547B2, “Gene coding for acetolactate synthase” (priority 2002, dated 2011).

For the molecule `COc1nc(C)nc(NC(=O)NS(=O)(=O)c2ccccc2Cl)n1` [chlorsulfuron], for the setting “day 8 or 10”, the “growth of Sr line on addition of herbicide (relative weight)” value is recorded as “not inhibited so much”.

Turning to `COc1cc(OC)nc(Oc2cccc(Oc3nc(OC)cc(OC)n3)c2C(=O)O)n1` [bispyribac-sodium], the “growth of Sr line (relative weight)” value (group supplemented with 10 μM, day 8 or 12) was “almost none of the growth”.
